Read-outs that look alike come from different tables or passages of the source. Square brackets hold non-standard residues; d marks the D form. Peptide text beside a SMILES is read from it. * marks the point of attachment. Ala(6-iPr-benzothiazol-2-yl) = CC(C)c1ccc2nc(C[C@H](N)C(=O)O)sc2c1; Cyclopropanecarbonyl = O=C(C1CC1)*; tBuAla = CC(C)(C)C[C@H](N)C(=O)O; Propionyl = CCC(=O)*
Target: DCN1 (Homo sapiens (Human), UniProt Q96GG9)
Experiment: Competitive FP binding assay
Procedure, shortened: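 FP competition with DCN1 in 100 mM phosphate pH 6.5, 0.02% Tween-20, 2% DMSO, probe 5 nM final. Equilibrated 30 min at room temperature with shaking. DCN1 was His6-tagged (uncleaved), expressed in E. coli Rosetta2 and purified by Ni-NTA and gel filtration.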

[1] = read-out: Binding affinity to DCN1 (IC50 (nM))
[2] = bounds given in μM, read-out: Binding affinity to DCN1 (IC50)

Chain of DCN1 (Q96GG9 58-259): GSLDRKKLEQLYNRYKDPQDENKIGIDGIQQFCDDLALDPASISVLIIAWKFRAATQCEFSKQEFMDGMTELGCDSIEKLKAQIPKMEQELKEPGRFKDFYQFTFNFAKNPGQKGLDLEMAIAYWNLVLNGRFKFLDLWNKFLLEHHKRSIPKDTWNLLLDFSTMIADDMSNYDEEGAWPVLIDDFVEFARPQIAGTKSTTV

IC50 [1] | IC50 [2] | Structure (SMILES)
173 nM |  | CCC(=O)N[C@@H](Cc1nc2ccc(Cl)cc2s1)C(=O)N[C@H](C(=O)N[C@@H](CCCCN)C(=O)N[C@@H]1CNCc2ccccc21)C1CCCC1 [Example 39]
 | > 10000 nM | CCC(=O)N[C@@H](Cc1cn(-c2cccc(Cl)c2)cn1)C(=O)N[C@H](CN)Cc1ccccc1 [Example 239]
282 nM |  | CCC(=O)N[C@@H](Cc1nc2ccc(Cl)cc2s1)C(=O)N[C@@H](Cc1ccncc1)C(=O)N[C@@H](CCCCN)C(=O)N[C@@H]1CCOc2ccccc21 [Example 203]
116 nM |  | CCC(=O)N[C@@H](Cc1nc2ccc(Cl)cc2s1)C(=O)N[C@@H](C[C@H]1CC[C@H](CN)CC1)C(=O)N[C@@H](CCCCN(C)C)C(=O)N[C@@H]1CCOc2ccccc21 [Example 45]
 | > 10000 nM | CCC(=O)N[C@H](Cc1nc2ccc(Cl)cc2s1)C(=O)N[C@@H](C(=O)N[C@H](CCCCN)C(=O)N[C@H]1CCOc2ccccc21)C1CCOCC1 [Example 204]
157 nM |  | CCC(=O)N[C@@H](Cc1nc2ccc(Cl)cc2s1)C(=O)N[C@H](C(=O)N[C@@H](CCCCN)C(=O)N[C@@H]1CCCc2ccccc21)C1CCCC1 [Example 32]
 | > 10000 nM | CCC(=O)N[C@@H](Cc1nc2ccc(C(C)C)cc2s1)C(=O)N[C@@H](CNC(=O)CCN1CCOCC1)Cc1ccccc1 (stereo in doubt) [Example 94]
1200 nM |  | CCC(=O)N[C@H](CNC(=O)[C@@H](N)C1CCCC1)Cc1nc2ccc(Cl)cc2s1 [Example 260]
176 nM |  | CCC(=O)N[C@@H](Cc1nc2ccc(C)cc2s1)C(=O)N[C@H](C(=O)N[C@@H](CCCCN)C(=O)N[C@@H]1CCOc2ccccc21)C1CCOCC1 [Example 181]
 | > 10000 nM | CCC(=O)N[C@@H](Cc1nc(C)c(-c2ccncc2)s1)C(=O)N[C@H](CN)Cc1ccccc1 [Example 230]
 | > 5000 nM | CCC(=O)N[C@H](CNC(=O)[C@H](N)C1CCCC1)Cc1nc2ccc(Cl)cc2s1 [Example 261]
 | > 10000 nM | CCC(=O)N[C@@H](Cc1nc2ccc(Cl)cc2s1)CN(Cc1ccccc1)Cc1ccccc1 [Example 259]
3450 nM |  | CCC(=O)N[C@H](CNC(=O)Cc1ccccn1)Cc1nc2ccc(Cl)cc2s1 [Example 257]
471 nM |  | CCC(=O)N[C@@H](Cc1nc2ccc(Cl)cc2s1)C(=O)N[C@H](CNC(=O)[C@@H](C)CN1CCOCC1)Cc1ccccc1 [Example 227]
858 nM |  | CCC(=O)N[C@@H](Cc1nc2ccc(Br)cc2s1)C(=O)N[C@H](CN)Cc1ccccc1 [Example 222]
1900 nM |  | CCC(=O)N[C@@H](Cc1nc2cc(Cl)ccc2s1)C(=O)N[C@H](C(=O)N[C@@H](CCCCN)C(=O)NC(c1ccccc1)c1ccccc1)[C@@H](C)CC [Example 153]
375 nM |  | CCC(=O)N[C@@H](Cc1nc2ccc(C)cc2s1)C(=O)N[C@H](C(=O)N[C@@H](CCCCN)C(=O)N[C@@H]1CCOc2ccccc21)C(C)(C)O [Example 182]
 | > 10000 nM | CCC(=O)N[C@@H](Cc1nc(C)c(-c2cccc(C#N)c2)s1)C(=O)N[C@H](CN)Cc1ccccc1 [Example 231]
316 nM |  | CCC(=O)N[C@@H](Cc1nc2ccc(Cl)cc2s1)C(=O)N[C@H](CN)CC1CCCCC1 [Example 218]
17.9 nM |  | CCC(=O)N[C@@H](Cc1nc2ccc(Cl)cc2s1)C(=O)N[C@H](C(=O)N[C@@H](CCCCN(C)C)C(=O)N[C@@H]1CCOc2ccccc21)C1CCCC1 [Example 34]
165 nM |  | CCC(=O)N[C@@H](Cc1nc2ccc(C)cc2s1)C(=O)N[C@@H](Cc1cccnc1)C(=O)N[C@@H](CCCCN)C(=O)N[C@@H]1CCOc2ccccc21 [Example 183]
120 nM |  | CCC(=O)N[C@@H](Cc1nc2ccc(Cl)cc2s1)C(=O)N[C@H](C(=O)N[C@@H](CCCCN)C(=O)N[C@@H](c1ccccc1)c1cn(CCO)nn1)C1CCOCC1 [249 & 250]

Continued, compound first:

Structure (SMILES) | IC50 [1] | IC50 [2]
CCC(=O)N[C@@H](Cc1nc2ccc(C(C)C)cc2s1)C(=O)N[C@H](CNC(=O)c1ncc[nH]1)C1CCCCC1 [Example 268] | 1210 nM | 
CCCC(=O)N[C@@H](Cc1nc2ccc(C(C)C)cc2s1)C(=O)N[C@H](CN)[C@@H](C)CC [Example 51, N—((S)-1-(((2S,3 S)-1-amino-3-methylpentan-2-yl)amino)-3-(6-isopropylbenzo[d]thiazol-2-yl)-1-oxopropan-2-yl)butyramide] | 944 ± 176 nM | 
CC[C@H](C)[C@H](NC(=O)[C@H](Cc1nc2ccc(C(C)C)cc2s1)NC(C)=O)C(=O)N[C@@H](CCCCN)C(=O)N[C@@H](CC(C)C)C(N)=O [Example 5, (S)-2-((2S,3 S)-2-((S)-2-acetamido-3-(6-isopropylbenzo[d]thiazol-2-yl)propanamido)-3-methylpentanamido)-6-amino-N—((S)-1-amino-4-methyl-1-oxopentan-2-yl)hexanamide] (Ac-[Ala(6-iPr-benzothiazol-2-yl)]IKL-NH2) | 40.1 nM | 
CCC(=O)N[C@H](Cc1nc2ccc(C(C)C)cc2s1)C(=O)N[C@@H](CN)C1CCCCC1 [Example 122, (R)—N—((R)-2-amino-1-cyclohexylethyl)-3-(6-isopropylbenzo[d]thiazol-2-yl)-2-propionamidopropanamide] |  | > 10000 nM
CCC(=O)N[C@@H](Cc1nc2ccc(C(C)C)cc2s1)C(=O)N[C@H](CN)[C@@H](C)CC [Example 47, (S)—N-((2S,3S)-1-amino-3-methylpentan-2-yl)-3-(6-isopropylbenzo[d]thiazol-2-yl)-2-propionamidopropanamide] | 95 ± 15.8 nM | 
CCC(=O)N[C@@H](Cc1ccc2ccccc2c1)C(=O)N[C@H](C(=O)N[C@@H](CCCCNC1CCN(C)CC1)C(=O)NC(c1ccccc1)c1ccccc1)C1CCCC1 [Example 147] | 354 nM | 
CCC(=O)N[C@@H](Cc1ccc2ccccc2c1)C(=O)N[C@H](C(=O)N[C@@H](CCCCN)C(=O)N[C@@H]1CCOc2ccc(Cl)cc21)C1CCCC1 [Example 164] | 394 nM | 
CCC(=O)N[C@@H](Cc1nc2ccc(C(C)C)cc2s1)C(=O)N[C@@H](CC(C)(C)C)C(=O)N[C@@H](CCCCN)C(=O)N[C@@H](CC(C)C)C(N)=O [Example 283] (Propionyl-[Ala(6-iPr-benzothiazol-2-yl)][tBuAla]KL-NH2) | 83 nM | 
CCC(=O)N[C@@H](Cc1nc2c(F)cccc2s1)C(=O)N[C@H](C(=O)N[C@@H](CCCCN)C(=O)NC(c1ccccc1)c1ccccc1)C1CCCC1 [Example 26] |  | > 3000 nM
CCC(=O)N[C@@H](Cc1ccc2ccccc2c1)C(=O)N[C@H](C(=O)N[C@@H](CCCCN)C(=O)N[C@@H]1CNCc2ccccc21)C1CCCC1 [Example 160] | 457 nM | 
CCC(=O)N[C@@H](Cc1nc2ccc(C(C)C)cc2s1)C(=O)N[C@@H](C)CN [Example 54, (S)—N—((S)-1-aminopropan-2-yl)-3-(6-isopropylbenzo[d]thiazol-2-yl)-2-propionamidopropanamide] |  | > 10000 nM
CC[C@H](C)[C@H](NC(=O)[C@H](Cc1nc2ccc(C(C)C)cc2s1)NC(=O)C1CC1)C(=O)N[C@@H](CCCCN)C(=O)N[C@@H](CC(C)C)C(N)=O [Example 274] (Cyclopropanecarbonyl-[Ala(6-iPr-benzothiazol-2-yl)]IKL-NH2) | 82.5 nM | 
CC(C)C(=O)N[C@@H](Cc1nc2ccc(C(C)C)cc2s1)C(=O)NCCN [Example 95] |  | > 10000 nM
CCC(=O)N[C@@H](Cc1nc2ccc(C(C)C)cc2s1)C(=O)N[C@H](CN(C)C)C1CCCCC1 [Example 79, (S)—N—((S)-1-cyclohexyl-2-(dimethylamino)ethyl)-3-(6-isopropylbenzo[d]thiazol-2-yl)-2-propionamidopropanamide] | 93.6 nM | 
CCC(=O)N[C@H](CNC(=O)[C@@H]1CCCCN1)Cc1nc2ccc(C(C)C)cc2s1 [Example 118] | 3110 nM | 
CCC(=O)N[C@H](CNC(=O)C1(N)CCCCC1)Cc1nc2ccc(C(C)C)cc2s1 [Example 110] | 1900 nM | 
CCC(=O)N[C@@H](Cc1cccnc1)C(=O)N[C@H](C(=O)N[C@@H](CCCCN)C(=O)NC(c1ccccc1)c1ccccc1)[C@@H](C)CC [Example 133] |  | > 10000 nM
CCC(=O)N[C@@H](Cc1nc(C)n(-c2ccccc2)n1)C(=O)N[C@H](CN)Cc1ccccc1 [DI-532] |  | > 10000 nM
CCC(=O)N[C@@H](Cc1nc2ccc(C(F)(F)F)cc2o1)C(=O)N[C@H](C(=O)N[C@@H](CCCCN)C(=O)N[C@@H]1CCOc2ccccc21)C1CCOCC1 [Example 197] | 102 nM | 
COCCC(=O)N[C@@H](Cc1nc2ccc(Cl)cc2s1)C(=O)NCCN [Example 236] |  | > 10000 nM
CC[C@H](C)[C@H](NC(=O)[C@H](Cc1nc2ccc(C(C)C)cc2s1)NC(C)=O)C(=O)N[C@@H](CCCCN)C(N)=O [Example 6, (S)-2-((2S,3 S)-2-((S)-2-acetamido-3-(6-isopropylbenzo[d]thiazol-2-yl)propanamido)-3-methylpentanamido)-6-aminohexanamide] | 632 ± 29 nM | 
CCC(=O)N[C@@H](Cc1cn2cc(Cl)ccc2n1)C(=O)N[C@H](C(=O)N[C@@H](CCCCN)C(=O)N[C@@H]1CCOc2ccccc21)C1CCCC1 [Example 212] | 55.6 nM | 
CCC(=O)N[C@@H](Cc1nc2ccc(C(C)C)cc2s1)C(=O)N[C@H](C(=O)N[C@@H](CCCCN)C(=O)N[C@@H](CC(C)C)C(N)=O)C(C)C [Example 282] (Propionyl-[Ala(6-iPr-benzothiazol-2-yl)]VKL-NH2) | 72 nM | 
CCC(=O)N[C@@H](Cc1nc2ccc(C(C)C)cc2s1)C(=O)NCCN [Example 53, (S)—N-(2-aminoethyl)-3-(6-isopropylbenzo[d]thiazol-2-yl)-2-propionamidopropanamide] |  | > 10000 nM
CCC(=O)N[C@@H](Cc1cccc(C)n1)C(=O)N[C@H](C(=O)N[C@@H](CCCCN)C(=O)NC(c1ccccc1)c1ccccc1)[C@@H](C)CC [Example 134] |  | > 10000 nM
CCC(=O)N[C@H](Cc1ccc2ccccc2c1)C(=O)N[C@H](C(=O)N[C@@H](CCCCN)C(=O)NC(c1ccccc1)c1ccccc1)C1CCCC1 [Example 145] |  | > 10000 nM
CCC(=O)N[C@@H](Cc1ccc2ccccc2c1)C(=O)N[C@H](C(=O)N[C@@H](CCCCN)C(=O)N[C@H](CN)c1ccccc1)C1CCCC1 [Example 150] | 2000 nM | 

Source: patent publication US12012467B2, “Small molecule DCN1 inhibitors and therapeutic methods using the same” (THE REGENTS OF THE UNIVERSITY OF MICHIGAN, priority 2017, dated 2024)
